Results reported in patent publication US12653860B2, “Compositions and methods for editing beta-globin for treatment of hemaglobinopathies” (Vertex Pharmaceuticals Incorporated, priority 2019, dated 2026).

Experiments:
Format in all cases: cell-based
[1] = system: BFP gene encoded in the AAVS1 locus of HEK293 T cells; experiment: BFP to GFP reporter assay of HDR repair (flow cytometry); conditions: for HDR efficiency (improvement): 1.25 μM SCR7 or 10 μM RS-1, any ssODN construct, relative to DMSO alone
Method: An in vitro assay was conducted to determine the ability of various inhibitors and enhancers to improve the efficiency of HDR repair in HEK293 T cells. Specifically, a fluorescent reporter-based screening approach was developed to identify molecules that enhance gene-editing by HDR. A reporter system was generated in HEK293 T cells comprising a genomic AAVS1 locus that encoded either a blue fluorescent protein (BFP) or a green fluorescent protein (GFP) within the AAVS1 locus. A gene encoding BFP can be converted to a gene encoding GFP by substitution of cytosine at position 199 to uridine (e.g., a C to U transition at position 199). By introducing a DSB within the BFP gene using a CRISPR/Cas9 gene-editing system, a homology donor DNA encoding the nucleotide substitution can be used to edit the BFP gene to a GFP gene by HDR repair. Thus, a gene edit that induces a C to U transition at position 199 results in a change in cellular fluorescence. A change in the fluorescence of the cell measured by flow cytometry can be used to quantify efficiency of HDR repair. Additionally, the reverse gene edit can be performed for an AAVS1 locus encoding a GFP gene, wherein a GFP can be converted to BFP by substitution of uridine at position 199 to cytosine.
To create the reporter system, an AAV-based homology donor DNA encoding either BFP or GFP was created. The AAV-BFP or AAV-GFP donor was flanked by homology arms that were 1000 base pairs in length and expression of BFP or GFP was driven by the MND promoter (e.g., a synthetic promoter that contains the U3 region of a modified Moloney murine leukemia virus long term terminal repeat with myeloproliferative sarcoma virus enhancer and deleted negative control region, SEQ ID NO: 58). The viral DNA was packaged into capsids of adeno-associated virus serotype 6 (AAV6) vector. Either the BFP or GFP donor was introduced using the AAV6 vector into the AAVS1 locus in HEK293 T cells by homologous recombination using CRISPR-Cas9 as follows: purified Cas9 protein was complexed with two different single gRNAs (sgRNAs) targeting the AAVS1 locus at SEQ ID NO: 3 (spacer sequence identified by SEQ ID NO: 4; gRNA obtained from Maxcyte) or SEQ ID NO: 5 (spacer sequence identified by SEQ ID NO: 6; gRNA obtained from Thermo Fisher). Cas9 protein used in the Exemplary section provided herein refers to Cas9 polypeptide derived from S pyogenes (SpCas9), unless indicated otherwise.
The Cas9-sgRNA complex was electroporated into the HEK293 T cells using the Lonza Nucleofector program CM-130. Approximately, 2 hours after electroporation, the cells were infected with various viral doses of AAV6 encoding a BFP (SEQ ID NO: 44) or GFP homology donor (SEQ ID NO: 47). One week later, cells were analyzed by flow cytometry to verify integration and expression of BFP or GFP in the AAVS1 locus. HEK293 T cells expressing BFP or GFP were sorted into single cells in 96-well plates. After −2 weeks of growth, DNA extracted from individual cells was analyzed for precise integration of the respective BFP or GFP gene into the AAVS1 locus by long-range PCR. This PCR analysis allowed for determination of whether the BFP/GFP gene was integrated in one or both alleles of the AAVS1 locus.
To introduce a gene edit that converts BFP to GFP, cells were electroporated with ribonucleoprotein (RNP) comprised of Cas9 and sgRNA that targets the BFP gene encoded in the AAVS1 locus. The sgRNA targeted a sequence in the BFP gene identified by SEQ ID NO: 7 (sgRNA spacer sequence identified by SEQ ID NO: 8). The sgRNA were prepared using a standard sgRNA cassette specific to SpCas9, as indicated by SEQ ID NO: 2 (wherein a, c, g, u represent 2′ O-methyl phosphorothioate nucleotides; s represents phosphorothioate nucleotides; and A, C, G, U, N represent canonical RNA nucleotides). The gRNAs used in the Exemplary section provided herein were sgRNAs prepared with the SpCas9 sgRNA cassette unless indicated otherwise. […]

[2] = system: GSD1a locus in HEK293 T cells; experiment: Gene correction by NHEJ repair at GSD1a locus with dsDNA donors; conditions: dsDNA donors 50-0 or 150-0; 2.5 μM Nu7441, 1.25 μM SCR7 or 10 μM RS-1; vs DMSO alone; FIG. 3
Method: The effect of Nu7441 treatment on gene correction by the NHEJ pathway was also evaluated. To do so, the cells were transfected with two different dsDNA donors: 50-0 (SEQ ID NO: 37) or 150-0 (SEQ ID NO: 38). Cells were edited with 1.5 g dsDNA donor. These dsDNA donors, lacking homology arms, introduce a second 3′ splice site into exon 2 at the GSD1a locus when inserted into the cut site induced by the Cas9-guide complex by NHEJ repair. The cells were treated with 2.5 μM Nu7441, 1.25 μM SCR7, or 10 μM RS-1 and gene correction by NHEJ repair was evaluated. […] Treatment with SCR7 or RS-1 had no effect over DMSO alone.

[3] = system: GFP gene encoded in the AAVS1 locus of HEK293 T cells; experiment: Indel formation by TIDE analysis, GFP to BFP edit; conditions: regardless of ssODN or gRNA; vs DMSO control; FIGS. 2C-2D
Method: The effect of DNA PK inhibition by Nu7441 correction of a DSB by the NHEJ pathway (e.g., introduce an indel at the DSB site) or HDR pathway (e.g., introduce a gene mutation encoded by a homology donor at the DSB site) was assessed using the reporter system described in Example 1. In this case gene-editing was evaluated in HEK293 T cells expressing GFP in the AAVS1 locus. To introduce a gene edit that converts GFP to BFP, cells were electroporated with ribonucleoprotein (RNP) comprised of Cas9 and gRNA1 (GFP target sequence identified by SEQ ID NO: 9; sgRNA spacer sequence identified by SEQ ID NO: 10) or gRNA2 (GFP target sequence identified by SEQ ID NO: 11; sgRNA spacer identified by SEQ ID NO: 12) that targets the GFP gene encoded in the AAVS1 locus. The cells were also transfected with ssODNs that encoded the gene correction necessary to convert GFP to BFP and homology arms complimentary to the sequence upstream and downstream of the target gene cut site. The efficiency of HDR repair was determined by measuring the level of cell BFP fluorescence. The efficiency of cutting (indel information) was monitored by TIDE analysis.
Shown in FIGS. 2C-2D is a measure of indel formation performed by TIDE analysis for the same edits that are described for FIGS. 2A-2B. […] Thus, the DNA PK inhibitor Nu7441 achieves reduced repair of a DSB by the NHEJ pathway when a homology donor is provided.

Compound | HDR efficiency ([1]; different doses of mRNA encoding i53, ssODNs Hn-91-61 and Ht-39-88, FIG. 1D) | gene correction by NHEJ repair [2] | HDR efficiency, fold higher ([1]; 2.5 μM Nu7441, each of four ssODN constructs, FIG. 1A) | HDR efficiency, high vs low concentration ([1]; 2.5 μM vs 0.6 μM Nu7441, FIG. 1B, 1C) | HDR efficiency at higher concentrations ([1]; concentrations of Nu7441 higher than 2.5 μM) | indel formation at the DSB site [3] | HDR efficiency (improvement) ([1]; FIG. 1A)
i53: polypeptide inhibitor of 53BP1 (SEQ ID NO: 70), delivered as mRNA (ORF SEQ ID NO: 69) | HDR efficiency increased |  |  |  |  |  | 
O=c1cc(N2CCOCC2)oc2c(-c3cccc4c3sc3ccccc34)cccc12 [Nu7441] |  | substantial decrease in gene correction | approximately 3 fold | approximately 1.5 fold | no further improvement in HDR efficiency | decreased indel formation | 
O=c1[nH]c(=S)[nH]c(N=Cc2ccccc2)c1N=Cc1ccccc1 [SCR7] |  | no effect |  |  |  | reduction compared to a DMSO control | no improvement in HDR efficiency
O=C(Nc1ccc(Br)cc1)c1ccc(Br)c(S(=O)(=O)NCc2ccccc2)c1 [RS-1] |  | no effect |  |  |  | reduction compared to a DMSO control | no improvement in HDR efficiency
